# Reference: patent US6649618B2, “Substituted amidoalkyl-uracils and their use” (Bayer Aktiengesellschaft, priority 2000, dated 2003)
# System: cytochrome P450
# Experiment: not given
# Conditions: Eriksson et al. 1996; cited from earlier work
row,Structure (SMILES),inhibition of cytochrome P450 (unspecific PARS inhibitor)
1,NC(=O)c1cccc(N)c1 [3-aminobenzamide],inhibits cytochrome P450

# System: MHEC5-T cells
# Experiment: Cell protection assay (in vitro), H2O2-induced cell death, Alamar blue
# Format: cell-based
# Conditions: MHEC5-T endothelial cells, 3 mM H2O2, 5 hours; 50% of maximum protection, 10 μM DHCH defined as 100%; read-out: EC50, cell protection (in vitro)
# Method: 2) Test Description Cell Protection Assay (in vitro)
# In accordance with a method described by Bowes [Bowes et al., Br. J. Pharmacol., 124, 1760-1766 (1998)], the ability of PARS inhibitors to protect cells against cell death induced by incubation with H2O2 is examined in a cell protection assay. Incubation of endothelial cells with H2O2 results in the generation of DNA strand breaks which in turn activate PARS, resulting in a drastic energy decrease in the cells and in cell death. Living cells are quantified by a fluorimetric redox indicator (Alamar blue), which is converted in the electron transport system of the mitochondria.
# Specifically, 7500 MHEC5-T cells/well (DSM ACC 336; German collection of microorganisms and cell cultures) are sown in 4 replications on a 96-well plate. After 24 hours, the cells are incubated with 3 mM aqueous H2O2 solution and differing concentrations of the substances in the presence of 6% by volume of Alamar blue solution in the medium at 37° C. for 5 hours. The reference substance used is 10 μM 1,5-dihydroxyisoquinoline (DHCH) solution. After the incubation, the fluorescence is measured at an excitation wavelength of 530-560 nm and an emission wavelength of 590 nm. The percentage for the cell protection is calculated as the difference between the living cells treated only with H2O2 and the cells treated with H2O2 and PARS inhibitors. The internal standard used is 10 μM DHCH, which is defined as 100% protection. The results obtained for the other substances are compared to this value.
# The EC50 values indicate the concentration at which 50% of maximum cell protection is reached, maximum protection by 10 μM DHCH being defined as 100%. DHCH has an EC50 value of 2 μM.
row,Structure (SMILES),EC50
1,"CN(CCCn1c2c(c(=O)[nH]c1=O)CSCC2)S(=O)(=O)c1ccccc1 [Example 2, N-[3-(2,4-Dioxo-3,4,7,8-tetrahydro-2H-thiopyrano[4,3-d]pyrimidin-1(5H)-yl)propyl]-N-methylphenylsulphonamide]",500 nM
2,CN(CCCn1c2c(c(=O)[nH]c1=O)CCCC2)S(=O)(=O)c1cccnc1 [Example 55],400 nM
3,CN(CCCn1c2c(c(=O)[nH]c1=O)CSCC2)S(=O)(=O)c1ccc2oc(=O)ccc2c1 [Example 57],300 nM
4,CN(CCCn1c2c(c(=O)[nH]c1=O)CSCC2)S(=O)(=O)c1ccc(F)cc1 [Example 58],400 nM
5,CN(CCCn1c2c(c(=O)[nH]c1=O)CSCC2)S(=O)(=O)c1cccnc1 [Example 59],250 nM
6,CN(CCCn1c2c(c(=O)[nH]c1=O)CCCC2)S(=O)(=O)c1cccc2nsnc12 [Example 61],500 nM
7,CN(CCCn1c2c(c(=O)[nH]c1=O)CSCC2)S(=O)(=O)c1ccsc1[N+](=O)[O-] [Example 67],50 nM

# Same assay, conditions: MHEC5-T endothelial cells, 3 mM H2O2, 5 hours; reference substance; read-out: EC50 value, cell protection
row,Structure (SMILES),EC50
1,"Oc1cccc2c(O)nccc12 [DHCH, 1,5-dihydroxyisoquinoline, reference compound]",2000 nM

# System: not given
# Experiment: not given
# Conditions: not given
row,Structure (SMILES),melting point
1,"O=C1CCCN1CCCn1c2c(c(=O)[nH]c1=O)CCCC2 [Example 1, 1-[3-(2-Oxo-1-pyrrolidinyl)propyl]-5,6,7,8-tetrahydro-2,4(1H,3H)-quinazolinedione]",189 °C
2,"O=c1[nH]c(=O)n(C2CCCC(NS(=O)(=O)c3ccc([N+](=O)[O-])cc3)C2)c2c1CCCC2 (centres unmarked) [Example 3, N-[3-(2,4-Dioxo-3,4,5,6,7,8-hexahydro-1(2H)-quinazolinyl)cyclohexyl]4-nitrobenzenesulphonamide]",> 240 °C
3,O=c1ccc2cc(S(=O)(=O)NC3CCCC(n4c5c(c(=O)[nH]c4=O)CCCC5)C3)ccc2o1 (centres unmarked) [Example 51],> 240 °C
4,CN(CCCn1c2c(c(=O)[nH]c1=O)CCCC2)S(=O)(=O)c1cccc2nsnc12 [Example 61],170 °C
5,CN(CCCn1c2c(c(=O)[nH]c1=O)CCCC2)S(=O)(=O)c1c(Cl)nc2sccn12 [Example 62],> 240 °C
6,CC(=O)Nc1nc(C)c(S(=O)(=O)N(C)CCCn2c3c(c(=O)[nH]c2=O)CCCC3)s1 [Example 63],> 240 °C
7,CN(CCCn1c2c(c(=O)[nH]c1=O)CCCC2)S(=O)(=O)c1cn(C)cn1 [Example 65],128 °C

# System: not given
# Experiment: not given
# Conditions: Szabo and Dawson 1998; cited from earlier work
row,Structure (SMILES),side-effects
1,"Nc1ccc2oc(=O)ccc2c1I [5-iodo-6-amino-1,2-benzopyrone]",serious side-effects
